Literature values, collected in US8962668B2, “Treatment of length dependent neuropathy” (Arcion Therapeutics, Inc., priority 2005, dated 2015).

Test system: patients with painful diabetic neuropathy

Clc1cccc(Cl)c1N=C1NCCN1 [clonidine]
difference between clonidine transdermal patches and placebo patches (placebo-controlled cross-over pain trial (Zeigler et al.)): no statistically significant difference
pain reduction relative to placebo (responders rechallenged, highest transdermal patch dosage, p<0.015): modest although statistically significant
clonidine responders (transdermal patches, twelve of forty-one patients who completed initial course (Byas-Smith et al.)): 29%
